Counter-ions that a name gives are not always drawn.
Tested on: cluster headache attacks
Assay: Double-blind randomized trial of treatment of cluster headache attacks in hospitalized patients
Type: in vivo
Experimental: Six consenting patients, suffering from cluster headache, were hospitalized. Two presented with a chronic state (more than one year) while the other four were in an attack stage at the moment of entering hospital. The patients received no other pharmaceuticals during the four days prior to commencing the study.
In each patient attacks lasted an average of 1-2 hours.
At the beginning of the attack, 10 minutes after the onset of pain, the patients received one of the following treatments:
500 mcg Somatostatin in 50 ml physiological solution, i.v.;
1 ml physiological solution i.m.;
50 ml physiological solution i.v.;
250 mcg Ergotamine Tartrate in 1 ml physiological solution i.m.
Duration of venous infusion was 20 minutes (50 drops per min.), and was started simultaneously with the i.m. injection. Treatments and patients were randomized and the trial was carried out in double blind.
In total, 9 attacks were treated for each patient, who received treatments (a) (b) or (c) 3 times; in this way, each treatment was used 18 times.
Pain intensity was ascertained every 10 minutes on a visible scale. Values were recorded on the ordinate against the time which was recorded on the abscissa.
3 parameters were used for statistical assessment; maximum intensity of pain expressed in arbitrary units; duration of pain expressed in minutes; area below the curve expressed in arbitrary units. During infusion with Somatostatin, blood pressure and pulse rates were recorded every 10 minutes for an hour.

[1] = versus physiological solution, Somatostatin 500 mcg i.v. infusion or Ergotamine Tartrate 250 mcg i.m.

Structure (SMILES) | Variations in blood pressure or pulse rates during infusion (500 mcg i.v. infusion, recorded every 10 minutes for an hour) | Incidence of side-effects as compared with Ergotamine (human, in vivo) | Reduction of pain duration as compared with placebo (Somatostatin 500 mcg i.v. infusion or Ergotamine Tartrate 250 mcg i.m.) [%] | Maximum pain intensity (Somatostatin 500 mcg i.v. infusion or Ergotamine Tartrate 250 mcg i.m., physiological solution 7.1±0.3) [arbitrary units] | Area under the pain curve (Somatostatin 500 mcg i.v. infusion or Ergotamine Tartrate 250 mcg i.m., physiological solution 43.8±6.2) [arbitrary units] | Duration of pain (cluster headache patients, Somatostatin 500 mcg i.v. infusion over 20 min or Ergotamine Tartrate 250 mcg i.m., 18 attacks per treatment, physiological solution 93±10) [min] | Reduction of maximum pain intensity [1] [%] | Reduction of the pain area [1] [%]
C[C@H](N)C(=O)NCC(=O)N[C@H]1CSSC[C@@H](C(=O)O)NC(=O)[C@H](CO)NC(=O)[C@H]([C@@H](C)O)NC(=O)[C@H](Cc2ccccc2)NC(=O)[C@H]([C@@H](C)O)NC(=O)[C@H](CCCCN)NC(=O)[C@H](Cc2c[nH]c3ccccc23)NC(=O)[C@H](Cc2ccccc2)NC(=O)[C@H](Cc2ccccc2)NC(=O)[C@H](CC(N)=O)NC(=O)[C@H](CCCCN)NC1=O [Somatostatin] | nor were there significant variations | minor incidence of side-effects | – | – | – | – | – | –
CN1C[C@H](C(=O)N[C@]2(C)O[C@@]3(O)[C@@H]4CCCN4C(=O)[C@H](Cc4ccccc4)N3C2=O)C=C2c3cccc4[nH]cc(c34)C[C@H]21 [Ergotamine, Ergotamine Tartrate] | – | – | 41 | 6.2±0.3 | 23.3±3.1 | 55 ± 8 | 13 | 47

— patent publication US4493830A, “Method for the treatment of idiopathic headache attacks, in particular migraine and cluster headache” (Istituto Farmacologico Serono of Rome, priority 1983, dated 1985)
